This assay relates to P388 leukemia ip, CD2F1 mice, survival T/C. Put plainly: NCI In Vivo Anticancer Drug Screen. Data for tumor model P388 Leukemia (intraperitoneal) in CD2F1 (CDF1) mice. The settings on record: endpoint: median survival time, higher = longer survival. Summed up: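 Mice carrying the transplanted tumor received test compound or vehicle. Survival was recorded in each group, and the value is the treated-group measurement divided by that of the vehicle-treated control group.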

Where [1] appears, read: dose: 100.0 mg/kg/injection, schedule: Q04DX002 (ip), vehicle: saline with Tween-80.
The mark [2] stands for this setting: dose: 200.0 mg/kg/injection, schedule: Q04DX002 (ip), vehicle: saline with Tween-80.
[3] abbreviates: dose: 50.0 mg/kg/injection, schedule: Q01DX005 (ip), vehicle: saline with Tween-80.
[4] abbreviates: dose: 100.0 mg/kg/injection, schedule: Q01DX005 (ip), vehicle: saline with Tween-80.
The mark [5] stands for this setting: dose: 200.0 mg/kg/injection, schedule: Q01DX005 (ip), vehicle: saline with Tween-80.
Where [6] appears, read: dose: 50.0 mg/kg/injection, schedule: Q01DX009 (ip), vehicle: Klucel (hydroxypropylcellulose) (HPC).
[7] abbreviates: dose: 100.0 mg/kg/injection, schedule: Q01DX009 (ip), vehicle: Klucel (hydroxypropylcellulose) (HPC).
[8] abbreviates: dose: 200.0 mg/kg/injection, schedule: Q01DX009 (ip), vehicle: Klucel (hydroxypropylcellulose) (HPC).
[9] abbreviates: dose: 60.0 mg/kg/injection, schedule: Q01DX005 (ip), vehicle: Klucel (hydroxypropylcellulose) (HPC).
[10] abbreviates: dose: 120.0 mg/kg/injection, schedule: Q01DX005 (ip), vehicle: Klucel (hydroxypropylcellulose) (HPC).
The mark [11] stands for this setting: dose: 100.0 mg/kg/injection, schedule: Q01DX009 (ip), vehicle: saline with Tween-80.
Setting [12] is: dose: 200.0 mg/kg/injection, schedule: Q01DX009 (ip), vehicle: saline with Tween-80.
[13] abbreviates: dose: 400.0 mg/kg/injection, schedule: Q01DX009 (ip), vehicle: saline with Tween-80.
Where [14] appears, read: dose: 60.0 mg/kg/injection, schedule: Q01DX005 (ip), vehicle: saline with Tween-80.

Each structure is given as a SMILES string. Values joined by “and” are separate entries in the source; they are usually repeats but may differ in a detail not shown here. Identical values can stand only once. Toxic doses and inconclusive results are not listed.

This note sets out measurements from PubChem BioAssay AID330 (DTP/NCI, 2004).

As for `C=C(C)C1C/C=C(\C)CC/C=C(\C)CC/C=C(\C)CC1` (stereo not drawn), the T/C (dose: 18.75 mg/kg/injection, schedule: Q01DX009 (ip), vehicle: saline + Tween-80 + alcohol) was 93 % of control; the T/C (dose: 37.5 mg/kg/injection, schedule: Q01DX009 (ip), vehicle: saline + Tween-80 + alcohol) was 101 % of control; the T/C (dose: 75.0 mg/kg/injection, schedule: Q01DX009 (ip), vehicle: saline + Tween-80 + alcohol) is 102 % of control; the T/C (dose: 150.0 mg/kg/injection, schedule: Q01DX009 (ip), vehicle: saline + Tween-80 + alcohol) is 99 % of control.
`CN=C(N)N/N=C(\c1ccccc1)c1ccc(Cl)c([N+](=O)[O-])c1`: the T/C (dose: 12.5 mg/kg/injection, schedule: Q04DX002 (ip), vehicle: saline with Tween-80) is 105 % of control; the T/C (dose: 25.0 mg/kg/injection, schedule: Q04DX002 (ip), vehicle: saline with Tween-80) was 105 % of control; the T/C (dose: 50.0 mg/kg/injection, schedule: Q04DX002 (ip), vehicle: saline with Tween-80) was 99 % of control; the T/C under setting [1] was 97 % of control; the T/C under setting [2] is 98 % of control; the T/C (dose: 400.0 mg/kg/injection, schedule: Q04DX002 (ip), vehicle: saline with Tween-80) was 113 % of control.
Take `O=C1c2cccc(O)c2C(=O)c2c1cc(CO)c(-c1c(CO)cc3c(c1O)C(=O)c1c(O)cccc1C3=O)c2O`: the T/C by setting is: (dose: 3.75 mg/kg/injection, schedule: Q01DX005 (ip), vehicle: Klucel (hydroxypropylcellulose) (HPC)) 98 % of control; (dose: 7.5 mg/kg/injection, schedule: Q01DX005 (ip), vehicle: Klucel (hydroxypropylcellulose) (HPC)) 100 % of control; (dose: 15.0 mg/kg/injection, schedule: Q01DX005 (ip), vehicle: Klucel (hydroxypropylcellulose) (HPC)) 99 % of control.
In the case of `COc1cccc(/C=C/S(=O)(=O)Cc2ccccc2)c1OC`, the T/C is, setting by setting: under setting [3], 93 % of control; under setting [4], 100 % of control; under setting [5], 91 % of control.
On to `CC(C(=O)NC(=O)O)S(=O)(=O)O` (stereo not drawn), for which the T/C is 101 % of control (dose: 12.5 mg/kg/injection, schedule: Q01DX001 (ip), vehicle: saline with Tween-80) and 103 % of control (dose: 25.0 mg/kg/injection, schedule: Q01DX001 (ip), vehicle: saline with Tween-80).
For `Clc1ccc(-c2csc(NCC3CCCO3)n2)cc1` (stereo not drawn), the T/C is, setting by setting: under setting [6], 100 % of control; under setting [7], 108 % of control; under setting [8], 100 % of control.
As for `O=C(CCCCCCCCc1ccc(O)c(O)c1)c1c(O)cccc1O`, the T/C reads like this: (dose: 3.0 mg/kg/injection, schedule: Q01DX009 (ip), vehicle: Klucel (hydroxypropylcellulose) (HPC)) 101 % of control; (dose: 12.0 mg/kg/injection, schedule: Q01DX009 (ip), vehicle: Klucel (hydroxypropylcellulose) (HPC)) 108 % of control; (dose: 24.0 mg/kg/injection, schedule: Q01DX009 (ip), vehicle: Klucel (hydroxypropylcellulose) (HPC)) 101 % of control.
`NC(=O)CC(NC(=O)OCC1c2ccccc2-c2ccccc21)C(=O)O` (stereo not drawn): the T/C is 92 % of control (dose: 12.5 mg/kg/injection, schedule: Q01DX005 (ip), vehicle: Klucel (hydroxypropylcellulose) (HPC)); 100 % of control (dose: 25.0 mg/kg/injection, schedule: Q01DX005 (ip), vehicle: Klucel (hydroxypropylcellulose) (HPC)); 100 % of control and 105 % of control (dose: 50.0 mg/kg/injection, schedule: Q01DX005 (ip), vehicle: Klucel (hydroxypropylcellulose) (HPC)).
Turning to `COc1nc(N=[N+]=[N-])nc(-c2c(OC)ccc3ccccc23)n1`, the T/C runs as follows: (dose: 25.0 mg/kg/injection, schedule: Q01DX005 (ip), vehicle: saline with Tween-80) 105 % of control; under setting [3], 96 % of control; under setting [4], 89 % of control; under setting [5], 89 % of control.
As to `C=C(C)c1nc(N(C)C)nc(N(C)C)n1`, the T/C is 98 % of control (dose: 30.0 mg/kg/injection, schedule: Q01DX005 (ip), vehicle: Klucel (hydroxypropylcellulose) (HPC)); 88 % of control and 95 % of control under setting [9]; 88 % of control under setting [10].
As for `Cc1ccc(C)c(Nc2ccccc2[N+](=O)[O-])c1`, the T/C (dose: 50.0 mg/kg/injection, schedule: Q01DX009 (ip), vehicle: saline with Tween-80) was 103 % of control; the T/C under setting [11] was 108 % of control; the T/C under setting [12] is 100 % of control; the T/C under setting [13] was 112 % of control.
`Cc1ccc(C(=O)NC2C(=O)NC(C(C)C)C(=O)N3CCCC3C(=O)N(C)CC(=O)N(C)C(C(C)C)C(=O)OC2C)c2c1Oc1c(c(C(=O)NC3C(=O)NC(C(C)C)C(=O)N4CCCC4C(=O)N(C)CC(=O)N(C)C(C(C)C)C(=O)OC3C)c3nc(-c4ccccc4)c(=O)oc3c1C)N2` (stereo not drawn): the T/C (dose: 0.13 mg/kg/injection, schedule: Q01DX005 (ip), vehicle: water) was 168 % of control; the T/C (dose: 0.25 mg/kg/injection, schedule: Q01DX005 (ip), vehicle: water) is 181 % of control and 240 % of control; the T/C (dose: 1.0 mg/kg/injection, schedule: Q01DX005 (ip), vehicle: water) was 246 % of control.
As for `C1CN2CCC1C1(C2)SSC2(CN3CCC2CC3)S1` (stereo not drawn), the T/C is 100 % of control (dose: 6.25 mg/kg/injection, schedule: Q01DX009 (ip), vehicle: saline); 95 % of control (dose: 12.5 mg/kg/injection, schedule: Q01DX009 (ip), vehicle: saline); 95 % of control (dose: 25.0 mg/kg/injection, schedule: Q01DX009 (ip), vehicle: saline).
Consider `O=C1N=C2C=CC=CN2C(=O)C1Cc1ccccc1` (stereo not drawn), for which the T/C under setting [11] was 120 % of control, the T/C under setting [12] is 110 % of control and the T/C under setting [13] is 90 % of control.
For the molecule `C=C(C(=C)n1nnc(C(=O)OC)c1C(=O)OC)n1nnc(C(=O)OC)c1C(=O)OC`, the T/C was 102 % of control under setting [14]; 101 % of control (dose: 120.0 mg/kg/injection, schedule: Q01DX005 (ip), vehicle: saline with Tween-80); 93 % of control (dose: 240.0 mg/kg/injection, schedule: Q01DX005 (ip), vehicle: saline with Tween-80).
Regarding `O=C1C(C(=NC2CCCCC2)c2ccccc2)=C(O)c2ccccc21`, the T/C was 104 % of control under setting [1] and 100 % of control under setting [2].
As to `Cc1ccc(C(C(=O)O)(c2ccc(C)cc2)C(O)C(=O)O)cc1` (stereo not drawn), the T/C runs as follows: (dose: 100.0 mg/kg/injection, schedule: Q01DX001 (ip), vehicle: Klucel (hydroxypropylcellulose) (HPC)) 107 % of control; (dose: 200.0 mg/kg/injection, schedule: Q01DX001 (ip), vehicle: Klucel (hydroxypropylcellulose) (HPC)) 107 % of control; (dose: 400.0 mg/kg/injection, schedule: Q01DX001 (ip), vehicle: Klucel (hydroxypropylcellulose) (HPC)) 105 % of control.
As for `CCNc1nc(Cl)nc(NCC)n1`, the T/C by setting is: (dose: 100.0 mg/kg/injection, schedule: Q01DX009 (ip), vehicle: saline) 98 % of control; (dose: 200.0 mg/kg/injection, schedule: Q01DX009 (ip), vehicle: saline) 91 % of control; (dose: 400.0 mg/kg/injection, schedule: Q01DX009 (ip), vehicle: saline) 94 % of control.
Turning to `CN(C)c1ccc2c(c1)C(=O)N(OS(=O)(=O)c1ccccc1)C2=O`, the T/C is 100 % of control under setting [3], 103 % of control under setting [4] and 96 % of control under setting [5].
Consider `C=CS(C=C)=NS(=O)(=O)c1ccc(C)cc1`, for which the T/C was 107 % of control and 110 % of control and 120 % of control (dose: 6.25 mg/kg/injection, schedule: Q01DX009 (ip), vehicle: other); 107 % of control and 118 % of control and 120 % of control (dose: 12.5 mg/kg/injection, schedule: Q01DX009 (ip), vehicle: other); 117 % of control (dose: 25.0 mg/kg/injection, schedule: Q01DX009 (ip), vehicle: other).
With `O=C1NC(c2ccccc2Cl)Nc2ccccc21` (stereo not drawn), the T/C is, setting by setting: under setting [6], 94 % of control; under setting [7], 92 % of control; under setting [8], 95 % of control; (dose: 400.0 mg/kg/injection, schedule: Q01DX009 (ip), vehicle: Klucel (hydroxypropylcellulose) (HPC)) 90 % of control.
Take `COc1ccc(C(c2cc3c(cc2O)OCO3)N2CCCC2)cc1` (stereo not drawn): the T/C reads like this: under setting [9], 100 % of control; under setting [10], 100 % of control.
Consider `COCCN1C(N)=C(C#N)C=C2CCCC(N=C(C#N)C#N)=C21`, for which the T/C was 101 % of control under setting [14], 102 % of control under setting [4] and 102 % of control under setting [5].
